Measurements from ChEMBL document CHEMBL5370574, “Discovery and Characterization of Moracin C as an Anti-Gouty Arthritis/Hyperuricemia Candidate by Docking-Based Virtual Screening and Pharmacological Evaluation” (J Nat Prod, 2023).
Active and inactive are the calls of the source. No cut-off for these calls is given here.

Tests used:
[1] = molecular target: T1, Xanthine dehydrogenase/oxidase (Homo sapiens, UniProt P47989); assay: Inhibition of XOD (unknown origin) using xanthine as substrate preincubated for 30 mins followed by xanthine addition measured after 30 mins by microplate reader
[2] = molecular target: T1, Xanthine dehydrogenase/oxidase; assay: Inhibition of XOD (unknown origin) using xanthine as substrate at 1 uM preincubated for 30 mins followed by xanthine addition measured after 30 mins by microplate reader relative to control; conditions: 0.5 h, time 60 min
Mus musculus [3] = assay: Hypouricemic activity in hypoxanthine/potassium oxonate-induced hyperuricemic Kunming mouse model assessed as decrease in liver XOD level at 10 mg/kg, po administered for 7 days measured 4 hrs post last dose by automatic biochemical analyzer; assay type: functional, organism-based; conditions: time 7.0 day
Mus musculus [4] = assay: Hypouricemic activity in hypoxanthine/potassium oxonate-induced hyperuricemic Kunming mouse model assessed as decrease in serum XOD level at 10 mg/kg, po administered for 7 days measured 4 hrs post last dose by automatic biochemical analyzer; assay type: functional, organism-based; conditions: time 7.0 day
[5] = molecular target: T2, Solute carrier family 22 member 12 (Homo sapiens, UniProt Q96S37); assay: Inhibition of URAT1(unknown origin)
T2 sequence (Q96S37 whole entry): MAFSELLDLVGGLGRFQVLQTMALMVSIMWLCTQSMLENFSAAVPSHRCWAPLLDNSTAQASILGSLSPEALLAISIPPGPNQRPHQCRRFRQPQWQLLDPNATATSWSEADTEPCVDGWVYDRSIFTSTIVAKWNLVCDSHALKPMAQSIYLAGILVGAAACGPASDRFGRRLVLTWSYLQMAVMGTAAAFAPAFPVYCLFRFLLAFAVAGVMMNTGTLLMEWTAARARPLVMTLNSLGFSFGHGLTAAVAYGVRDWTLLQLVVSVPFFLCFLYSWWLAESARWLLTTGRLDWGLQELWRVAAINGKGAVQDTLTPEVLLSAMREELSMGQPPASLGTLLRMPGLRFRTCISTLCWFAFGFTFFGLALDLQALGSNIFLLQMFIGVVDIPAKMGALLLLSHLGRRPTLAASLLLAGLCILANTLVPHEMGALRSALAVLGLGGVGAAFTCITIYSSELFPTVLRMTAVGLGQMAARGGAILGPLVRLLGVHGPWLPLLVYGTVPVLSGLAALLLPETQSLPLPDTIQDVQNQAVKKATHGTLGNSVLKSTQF

[6] = molecular target: T1, Xanthine dehydrogenase/oxidase; assay: Inhibition of XOD (unknown origin)
Rattus norvegicus [7] = assay: Antiarthritic activity against MSU-induced Sprague-Dawley rat OA model assessed as toe swelling volume variation at 10 mg/kg, ig administered for 3 days; assay type: functional; conditions: time 3 day
Rattus norvegicus [8] = assay: Antiarthritic activity against MSU-induced Sprague-Dawley rat OA model assessed as inflammation index at 20 mg/kg, ig administered for 3 days; assay type: functional; conditions: time 3 day
Mus musculus [9] = assay: Hypouricemic activity in hypoxanthine/potassium oxonate-induced hyperuricemic Kunming mouse model assessed as decrease in serum uric acid level at 5 to 20 mg/kg, po administered for 7 days measured 4 hrs post last dose by biochemical analyzer; assay type: functional, organism-based; conditions: dose 5-20 mg/kg, time 7.0 day
Rattus norvegicus [10] = assay: Antiarthritic activity against MSU-induced Sprague-Dawley rat OA model assessed as inflammation index at 1 mg/kg, ig administered for 3 days; assay type: functional, organism-based; conditions: time 3.0 day
Mus musculus [11] = assay: Hypouricemic activity in hypoxanthine/potassium oxonate-induced hyperuricemic Kunming mouse model assessed as decrease in liver XOD level at 5 to 20 mg/kg, po administered for 7 days measured 4 hrs post last dose by automatic biochemical analyzer; assay type: functional, organism-based; conditions: dose 5-20 mg/kg, time 7.0 day
RAW264.7 [12] = assay: Antiinflammatory activity in MSU-induced mouse RAW264.7 cells assessed as decrease in TNF-alpha mRNA expression at 1 to 10 uM preincubated for 2 hrs followed by MSU stimulation and measured after 12 hrs by qRT-PCR analysis; assay type: functional, cell-based; conditions: dose 1-10 µM, time 14.0 hrs
RAW264.7 [13] = assay: Antiinflammatory activity in MSU-induced mouse RAW264.7 cells assessed as decrease in TNF-alpha expression preincubated for 2 hrs followed by MSU stimulation and measured after 12 hrs by ELISA; assay type: functional, cell-based; conditions: dose 1-10 µM, time 14.0 hrs
Rattus norvegicus [14] = assay: Antiarthritic activity against MSU-induced Sprague-Dawley rat OA model assessed as dysfunction index at 20 mg/kg, ig administered for 3 days; assay type: functional; conditions: time 3 day
RAW264.7 [15] = assay: Antiinflammatory activity in MSU-induced mouse RAW264.7 cells assessed as decrease in IL-1beta expression preincubated for 2 hrs followed by MSU stimulation and measured after 12 hrs by ELISA; assay type: functional, cell-based; conditions: dose 1-10 µM, time 14.0 hrs
Rattus norvegicus [16] = assay: Antiarthritic activity against MSU-induced Sprague-Dawley rat OA model assessed as dysfunction index at 10 mg/kg, ig administered for 3 days; assay type: functional; conditions: time 3 day
Mus musculus [17] = assay: Hypouricemic activity in hypoxanthine/potassium oxonate-induced hyperuricemic Kunming mouse model assessed as decrease in uric acid level in urine at 5 to 20 mg/kg, po administered for 7 days measured 4 hrs post last dose by automatic biochemical analyzer; assay type: functional, organism-based; conditions: dose 5-20 mg/kg, time 7.0 day
Rattus norvegicus [18] = assay: Antiarthritic activity against MSU-induced Sprague-Dawley rat OA model assessed as toe swelling volume variation at 20 mg/kg, ig administered for 3 days; assay type: functional; conditions: time 3 day
Rattus norvegicus [19] = assay: Antiarthritic activity against MSU-induced Sprague-Dawley rat OA model assessed as toe swelling volume variation at 1 mg/kg, ig administered for 3 days; assay type: functional, organism-based; conditions: time 3.0 day
RAW264.7 [20] = assay: Antiinflammatory activity in MSU-induced mouse RAW264.7 cells assessed as decrease in IL-1beta mRNA expression at 1 to 10 uM preincubated for 2 hrs followed by MSU stimulation and measured after 12 hrs by qRT-PCR analysis; assay type: functional, cell-based; conditions: dose 1-10 µM, time 14.0 hrs
Rattus norvegicus [21] = assay: Antiarthritic activity against MSU-induced Sprague-Dawley rat OA model assessed as inflammation index at 10 mg/kg, ig administered for 3 days; assay type: functional; conditions: time 3 day
[22] = molecular target: T3, Solute carrier family 2, facilitated glucose transporter member 9 (Homo sapiens) (UniProt Q9NRM0); assay: Inhibition of GLUT9 (unknown origin) expressed in HEK293T cells assessed as effect on uric acid induced current at 10 uM; assay type: cell-based
T3 sequence (whole entry): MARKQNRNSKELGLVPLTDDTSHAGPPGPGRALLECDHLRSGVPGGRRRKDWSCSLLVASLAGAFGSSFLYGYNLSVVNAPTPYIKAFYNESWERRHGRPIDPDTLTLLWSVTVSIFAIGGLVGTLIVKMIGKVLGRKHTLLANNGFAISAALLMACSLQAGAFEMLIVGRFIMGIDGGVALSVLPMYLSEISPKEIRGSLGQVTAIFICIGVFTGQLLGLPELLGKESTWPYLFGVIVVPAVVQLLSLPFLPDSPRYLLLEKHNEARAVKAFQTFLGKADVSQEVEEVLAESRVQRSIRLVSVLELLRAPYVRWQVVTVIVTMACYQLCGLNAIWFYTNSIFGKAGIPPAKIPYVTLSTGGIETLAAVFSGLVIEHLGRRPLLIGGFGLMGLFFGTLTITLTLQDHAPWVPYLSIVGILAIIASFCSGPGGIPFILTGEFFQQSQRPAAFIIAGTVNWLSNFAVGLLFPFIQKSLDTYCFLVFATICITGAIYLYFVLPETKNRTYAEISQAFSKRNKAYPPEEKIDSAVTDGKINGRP

Rattus norvegicus [23] = assay: Antiarthritic activity against MSU-induced Sprague-Dawley rat OA model assessed as reduction of serum IL-1beta protein expression level at 10 mg/kg, ig administered for 3 days by ELISA; assay type: functional, organism-based; conditions: time 3.0 day
Rattus norvegicus [24] = assay: Antiarthritic activity against MSU-induced Sprague-Dawley rat OA model assessed as reduction in caspase-1 mRNA expression level in tissue joint at 5 to 20 mg/kg, ig administered for 3 days by qRT-PCR analysis; assay type: functional, organism-based; conditions: dose 5-20 mg/kg, time 3.0 day
Rattus norvegicus [25] = assay: Antiarthritic activity against MSU-induced Sprague-Dawley rat OA model assessed as inflammation index at 5 mg/kg, ig administered for 3 days; assay type: functional; conditions: time 3 day
Rattus norvegicus [26] = assay: Antiarthritic activity against MSU-induced Sprague-Dawley rat OA model assessed as reduction of serum IL-1beta protein expression level at 5 to 20 mg/kg, ig administered for 3 days by ELISA; assay type: functional, organism-based; conditions: dose 5-20 mg/kg, time 3.0 day
Rattus norvegicus [27] = assay: Antiarthritic activity against MSU-induced Sprague-Dawley rat OA model assessed as reduction in NLRP3 mRNA expression level in tissue joint at 5 to 20 mg/kg, ig administered for 3 days by qRT-PCR analysis; assay type: functional, organism-based; conditions: dose 5-20 mg/kg, time 3.0 day
Rattus norvegicus [28] = assay: Antiarthritic activity against MSU-induced Sprague-Dawley rat OA model assessed as reduction in ASC mRNA expression level in tissue joint at 5 to 20 mg/kg, ig administered for 3 days by qRT-PCR analysis; assay type: functional, organism-based; conditions: dose 5-20 mg/kg, time 3.0 day
Rattus norvegicus [29] = assay: Antiarthritic activity against MSU-induced Sprague-Dawley rat OA model assessed as reduction of serum TNF-alpha protein expression level at 5 to 20 mg/kg, ig administered for 3 days by ELISA; assay type: functional, organism-based; conditions: dose 5-20 mg/kg, time 3.0 day
Rattus norvegicus [30] = assay: Antiarthritic activity against MSU-induced Sprague-Dawley rat OA model assessed as toe swelling volume variation at 5 mg/kg, ig administered for 3 days; assay type: functional; conditions: time 3 day
Rattus norvegicus [31] = assay: Antiarthritic activity against MSU-induced Sprague-Dawley rat OA model assessed as dysfunction index at 1 mg/kg, ig administered for 3 days; assay type: functional, organism-based; conditions: time 3.0 day
[32] = molecular target: T2, Solute carrier family 22 member 12; assay: Inhibition of URAT1 (unknown origin) expressed in HEK293T cells assessed as reduction in 14C-uric acid uptake at 10 uM; assay type: cell-based
Rattus norvegicus [33] = assay: Antiarthritic activity against MSU-induced Sprague-Dawley rat OA model assessed as dysfunction index at 5 mg/kg, ig administered for 3 days; assay type: functional; conditions: time 3 day
Mus musculus [34] = assay: Hypouricemic activity in hypoxanthine/potassium oxonate-induced hyperuricemic Kunming mouse model assessed as decrease in serum XOD level at 5 to 20 mg/kg, po administered for 7 days measured 4 hrs post last dose by automatic biochemical analyzer; assay type: functional, organism-based; conditions: dose 5-20 mg/kg, time 7.0 day
Rattus norvegicus [35] = assay: Antiarthritic activity against MSU-induced Sprague-Dawley rat OA model assessed as reduction in ASC mRNA expression level in tissue joint at 10 mg/kg, ig administered for 3 days by qRT-PCR analysis; assay type: functional, organism-based; conditions: time 3.0 day
Rattus norvegicus [36] = assay: Antiarthritic activity against MSU-induced Sprague-Dawley rat OA model assessed as reduction of serum TNF-alpha protein expression level at 10 mg/kg, ig administered for 3 days by ELISA; assay type: functional, organism-based; conditions: time 3.0 day
Rattus norvegicus [37] = assay: Antiarthritic activity against MSU-induced Sprague-Dawley rat OA model assessed as reduction in Caspase-1 mRNA expression level in tissue joint at 10 mg/kg, ig administered for 3 days by qRT-PCR analysis; assay type: functional, organism-based; conditions: time 3.0 day
Rattus norvegicus [38] = assay: Antiarthritic activity against MSU-induced Sprague-Dawley rat OA model assessed as reduction in NLRP3 mRNA expression level in tissue joint at 10 mg/kg, ig administered for 3 days by qRT-PCR analysis; assay type: functional, organism-based; conditions: time 3.0 day

T1 sequence (P47989 whole entry): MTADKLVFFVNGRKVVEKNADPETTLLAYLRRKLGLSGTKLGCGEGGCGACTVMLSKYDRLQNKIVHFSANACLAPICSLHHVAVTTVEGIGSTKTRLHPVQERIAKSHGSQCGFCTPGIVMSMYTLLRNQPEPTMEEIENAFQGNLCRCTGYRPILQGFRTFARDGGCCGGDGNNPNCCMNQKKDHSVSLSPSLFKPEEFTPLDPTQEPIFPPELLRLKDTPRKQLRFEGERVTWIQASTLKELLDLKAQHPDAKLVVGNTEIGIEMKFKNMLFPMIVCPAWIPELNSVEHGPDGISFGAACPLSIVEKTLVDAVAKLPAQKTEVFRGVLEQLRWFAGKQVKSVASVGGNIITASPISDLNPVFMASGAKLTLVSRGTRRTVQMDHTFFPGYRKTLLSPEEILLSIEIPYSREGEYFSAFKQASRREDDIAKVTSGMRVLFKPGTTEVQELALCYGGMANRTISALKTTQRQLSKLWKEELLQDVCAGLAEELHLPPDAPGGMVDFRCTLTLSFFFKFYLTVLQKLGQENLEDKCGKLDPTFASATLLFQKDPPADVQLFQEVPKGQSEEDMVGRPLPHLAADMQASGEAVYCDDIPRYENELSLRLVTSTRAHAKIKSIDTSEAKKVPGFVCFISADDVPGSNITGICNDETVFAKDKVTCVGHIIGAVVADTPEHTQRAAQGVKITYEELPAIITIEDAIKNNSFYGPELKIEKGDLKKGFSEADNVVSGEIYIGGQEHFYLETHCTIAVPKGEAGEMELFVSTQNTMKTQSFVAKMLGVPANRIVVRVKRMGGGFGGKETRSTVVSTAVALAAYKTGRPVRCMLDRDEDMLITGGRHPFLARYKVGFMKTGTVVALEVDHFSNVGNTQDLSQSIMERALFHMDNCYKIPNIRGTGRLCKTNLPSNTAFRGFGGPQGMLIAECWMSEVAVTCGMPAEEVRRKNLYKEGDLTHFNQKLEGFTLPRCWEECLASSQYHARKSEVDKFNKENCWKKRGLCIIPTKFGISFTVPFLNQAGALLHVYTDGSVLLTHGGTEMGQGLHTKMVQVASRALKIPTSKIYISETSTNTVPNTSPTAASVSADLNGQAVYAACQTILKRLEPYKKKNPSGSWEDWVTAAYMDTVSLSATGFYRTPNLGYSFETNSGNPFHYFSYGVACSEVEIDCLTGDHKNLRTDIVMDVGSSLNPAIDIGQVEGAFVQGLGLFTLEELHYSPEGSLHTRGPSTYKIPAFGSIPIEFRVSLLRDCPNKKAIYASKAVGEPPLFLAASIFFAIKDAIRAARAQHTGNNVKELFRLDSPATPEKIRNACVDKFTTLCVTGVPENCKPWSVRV

`COc1ccc2c(=O)c(-c3ccc(O)cc3)coc2c1` [ISOFORMONENTIN] gave an IC50 [1] of 13000 nM and an inhibition at 1 µM [2] of 25%.
For `CC1(C)C=Cc2cc(-c3cc(=O)c4c(O)cc(O)cc4o3)ccc2O1`, the inhibition at 1 µM [2] was < 20%.
With `Cc1nc(-c2ccc(OCC(C)C)c(C#N)c2)sc1C(=O)O` [FEBUXOSTAT] the Activity (Mus musculus [3]) was “Active”, the IC50 [1] was 160 nM and the inhibition at 1 µM [2] was 75%. The Activity (Mus musculus [4]) was “Active”.
In the case of `O=c1c(O)c(-c2ccc(O)cc2O)oc2cc(O)cc(O)c12` [MORIN], the Ki [5] is reported as 2000 nM and the IC50 [6] is reported as 25000 nM.
`CC(C)=CCc1c(O)cc(-c2cc3ccc(O)cc3o2)cc1O` [MORACIN C] was tested, and the Activity (Rattus norvegicus [7]) was 0.1 mL, the Activity_index (Rattus norvegicus [8]) was 0.6 and the Activity (Mus musculus [9]) was “Active”. The Activity (Rattus norvegicus [10]) was “Active”, the Activity (Mus musculus [11]) was “Active” and the Activity (RAW264.7 [12]) was “Active”. The Activity (RAW264.7 [13]) was “Dose-Dependent Effect”, the Activity_index (Rattus norvegicus [14]) was 0 and the Activity (RAW264.7 [15]) was “Dose-Dependent Effect”. For the same compound, the Activity_index (Rattus norvegicus [16]) was 0, the Activity (Mus musculus [17]) was “inactive” and the Activity (Rattus norvegicus [18]) was 0.06 mL. The Activity (Rattus norvegicus [19]) was “Active”, the Activity (RAW264.7 [20]) was “Active” and the Activity_index (Rattus norvegicus [21]) was 1. For the same compound, the inhibition [22] was “inactive”, the IC50 [1] was 250 nM and the Activity (Rattus norvegicus [23]) was “Active”. The inhibition at 1 µM [2] was 70%, the Activity (Rattus norvegicus [24]) was “Active” and the Activity_index (Rattus norvegicus [25]) was 1. The Activity (Rattus norvegicus [26]) was “Active”, the Activity (Rattus norvegicus [27]) was “Active” and the Activity (Rattus norvegicus [28]) was “Active”. The Activity (Rattus norvegicus [29]) was “Active”, the Activity (Rattus norvegicus [30]) was 0.16 mL and the Activity (Rattus norvegicus [31]) was “Active”. The “inhibition (INH)” value [32] was “Not Active”, the Activity_index (Rattus norvegicus [33]) was 0 and the Activity (Mus musculus [34]) was “Active”.
For `COc1cc2c(c(OC)c1OC)-c1ccc(OC)c(=O)cc1[C@@H](NC(C)=O)CC2` [COLCHICINE], the Activity (Rattus norvegicus [7]) was 0.03 mL, the Activity (Rattus norvegicus [10]) was “Active” and the Activity (Rattus norvegicus [35]) was “Active”. For the same compound, the Activity (Rattus norvegicus [36]) was “Active”, the Activity_index (Rattus norvegicus [16]) was 0 and the Activity (Rattus norvegicus [19]) was “Active”. The Activity_index (Rattus norvegicus [21]) was 0.6, the Activity (Rattus norvegicus [37]) was “Active” and the Activity (Rattus norvegicus [31]) was “Active”. For the same compound, the Activity (Rattus norvegicus [38]) was “Active”.
